Reference: US12653776B2, “Methods of treatment of cancer by continuous infusion of coenzyme Q10” (priority 2013, dated 2026)

Test: First-in-human Phase 1 study (CTL0510), 4-hour IV infusion 3 times weekly: safety
Details: in vivo
Experimental: The first-in-human Phase 1 study with coenzyme Q10 nanosuspension (40 mg/ml) was conducted in 50 patients with advanced solid tumors. The objectives were to assess the safety, maximum tolerated dose, PK and PD of coenzyme Q10, specifically a 4% coenzyme Q10 nanosuspension formulation (as described in WO 2011/112900, the entire contents of which are expressly incorporated herein by reference), administered as a 4-hour IV infusion 3 times weekly in 28-day cycles. Nine dose levels were explored ranting from 5.62 to 139 mg/kg. Plasma concentration profiles and PK parameters were determined from blood samples collected pre-dose and at intervals to 48 hours post-dose.

With Vitamin K [reference compound] the “INR after Vitamin K administration” value was “all INRs decreased to grade 1 or resolved”.
